From patent US8779202B2, “Compositions and methods for the treatment of giardiasis” (Georgetown University, priority 2009, dated 2014)

What was measured:
[1] = tested on: Giardia parasite cultures; experiment: Reversibility of compound effect on Giardia viability and attachment; assay type: cell-based, Giardia lamblia; settings: 15 μM, 30 minutes-2 hours in PBS at 37° C., wash, 48 hours in growth media
Method: Parasite cultures were treated for 30 minutes—2 hours with 15 μM of Compounds I-16, III-1, IV-1, V-1, VI-1, VII-1, and VIII-2A in PBS at 37° C. Parasites were then washed with warm PBS to remove compounds, and were placed in normal Giardia growth media for an additional 48 hours. […] All comparisons were made to cultures of untreated Giardia.

Giardia parasites = experiment: Video microscopy of parasite morphology and dynamics; assay type: cell-based, Giardia lamblia; settings: for Observed Parasite Morphology and Dynamics: Table I, video microscopy at 50, 15, 10, 5 and 1 μM
Method: A series of video microscopy studies were undertaken to examine the effect of the compounds on parasite morphology and dynamics. Short 1 minute videos of parasite behavior were recorded using DIC optics on a Zeiss AXIOPLAN microscope (Carl Zeiss Microimaging GmbH, Germany) using a Photometrics CCD camera (Photometrics, Inc.; Tucson, Ariz.). Recordings were made on at least three separate occasions at compound concentrations of 50 μM, 15 μM, 10 μM, 5 μM, and 1 μM to allow comparison to the dose-response curves in the attachment assay. Four broad categories of compound action were found (see Table I).

Molecule	reversibility of effect on parasite attachment and viability [1]	effect on parasite morphology and activity (Giardia parasites)	Observed Parasite Morphology and Dynamics (Giardia parasites)
CC(Br)C(=O)c1ccc2cc(Br)c3ccccc3c2c1 (centres unmarked) [Compound III-1]	irreversible	profoundly disrupted parasite morphology or simply destroyed the parasites	Parasites display a profoundly disrupted morphology
O=C1C=C(N2CCN(c3ccccn3)CC2)C(=O)c2c(O)ccc(O)c21 [Compound IV-1]	irreversible	profoundly disrupted parasite morphology or simply destroyed the parasites	Parasites display a profoundly disrupted morphology
Nogalamycin [Compound VII-1]	largely reversible	no observable effect on Giardia morphology, but did cause flagellar paralysis	Parasites display disrupted peripheral morphology,
Cc1c(Cl)cc(C(C)(C)C)c(O)c1Cc1c(C)c(Cl)cc(C(C)(C)C)c1O [Compound VI-1]	largely reversible	disrupted peripheral morphology, resulting either in loss of overall shape or localized membrane blebbing	Parasites display disrupted peripheral morphology,
Nc1nc(SCc2ccccc2[N+](=O)[O-])c2[nH]cnc2n1 [Compound V-1]	largely reversible	disrupted peripheral morphology, resulting either in loss of overall shape or localized membrane blebbing	–
C[C@H]1CC[C@@H]2[C@@H](C)[C@H]3[C@H](C[C@H]4[C@@H]5CC=C6C[C@@H](O)CC[C@]6(C)[C@H]5CC[C@]34C)N2C1 [Compound VIII-2A]	largely reversible	no observable effect on parasite morphology and activity, but did significantly reduce attachment	Parasites appear normal in morphology and activity,
Oc1ccc2ccccc2c1CN(Cc1c(O)ccc2ccccc12)C1CCCCC1 [Compound I-16]	largely reversible	no observable effect on parasite morphology and activity, but did significantly reduce attachment	Parasites appear normal in morphology and activity,
